System: 379773-124-R-J2-PDC spheroid viability
Assay: Anticancer human tumor 379773-124-R-J2-PDC patient-derived endometrial carcinoma cell line growth inhibition [POLQ]
Details: spheroids with HUVEC and MSC; for IC50: curve of first compound; for viability, T/C: stronger effect = lower value
In short: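 Growth inhibition in 3D: complex spheroids (tumor PDC, HUVEC, MSC) treated with POLQ inhibitor combinations; where Cmax unknown, highest tested concentration 10 microM, except SN-38 at 1 microM.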

[1] = second compound 0.0316 µM, first compound 0.0316 µM
[2] = second compound 0.0316 µM, first compound 0.1 µM
[3] = second compound 0.0316 µM, first compound 0.316 µM
[4] = second compound 0.0316 µM, first compound 1 µM
[5] = second compound 0.0316 µM, first compound 3.16 µM
[6] = second compound 0.0316 µM, first compound 10 µM
[7] = second compound 0.1 µM, first compound 0.0316 µM
[8] = second compound 0.1 µM, first compound 0.1 µM
[9] = second compound 0.1 µM, first compound 0.316 µM
[10] = second compound 0.1 µM, first compound 1 µM
[11] = second compound 0.1 µM, first compound 3.16 µM
[12] = second compound 0.1 µM, first compound 10 µM
[13] = second compound 0.316 µM, first compound 0.0316 µM
[14] = second compound 0.316 µM, first compound 0.1 µM
[15] = second compound 0.316 µM, first compound 0.316 µM
[16] = second compound 0.316 µM, first compound 1 µM
[17] = second compound 0.316 µM, first compound 3.16 µM
[18] = second compound 0.316 µM, first compound 10 µM
[19] = second compound 1 µM, first compound 0.0316 µM
[20] = second compound 1 µM, first compound 0.1 µM
[21] = second compound 1 µM, first compound 0.316 µM
[22] = second compound 1 µM, first compound 1 µM
[23] = second compound 1 µM, first compound 3.16 µM
[24] = second compound 1 µM, first compound 10 µM
[25] = second compound 3.16 µM, first compound 0.0316 µM
[26] = second compound 3.16 µM, first compound 0.1 µM
[27] = second compound 3.16 µM, first compound 0.316 µM
[28] = second compound 3.16 µM, first compound 1 µM
[29] = second compound 3.16 µM, first compound 3.16 µM
[30] = second compound 3.16 µM, first compound 10 µM
[31] = second compound 10 µM, first compound 0.0316 µM
[32] = second compound 10 µM, first compound 0.1 µM
[33] = second compound 10 µM, first compound 0.316 µM
[34] = second compound 10 µM, first compound 1 µM
[35] = second compound 10 µM, first compound 3.16 µM
[36] = second compound 10 µM, first compound 10 µM
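Further: spheroids exposed to drugs for seven days before readout.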
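Wherever viability, T/C is given: percent viability relative to DMSO vehicle control taken as 100%.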

Which results are given for `CCc1cc2c(N3CCc4c(cc(Cn5ccnc5)cc4-c4cn(C)nc4C(F)(F)F)C3=O)ccnc2c(OC)n1` + COC1C(OC(N)=O)C(O)C(Oc2ccc3c(O)c(NC(=O)c4ccc(O)c(CC=C(C)C)c4)c(=O)oc3c2C)OC1(C)C?
IC50 (second compound 0.0316 µM): 3.42 µM; IC50 (second compound 0.1 µM): 2.6 µM; IC50 (second compound 0.316 µM): 2.42 µM; IC50 (second compound 1 µM): 3.58 µM; IC50 (second compound 3.16 µM): 1.79 µM; IC50 (second compound 10 µM): > 10 µM; viability, T/C [1]: 79.6%; viability, T/C [2]: 68.7%; viability, T/C [3]: 62.5%; viability, T/C [4]: 58.6%; viability, T/C [5]: 52.4%; viability, T/C [6]: 42.6%; viability, T/C [7]: 79.5%; viability, T/C [8]: 64.2%; viability, T/C [9]: 59.7%; viability, T/C [10]: 56.1%; viability, T/C [11]: 52.3%; viability, T/C [12]: 42.3%; viability, T/C [13]: 75.8%; viability, T/C [14]: 68%; viability, T/C [15]: 59.1%; viability, T/C [16]: 57.2%; viability, T/C [17]: 48.2%; viability, T/C [18]: 42.3%; viability, T/C [19]: 66.7%; viability, T/C [20]: 65.4%; viability, T/C [21]: 58.3%; viability, T/C [22]: 58.1%; viability, T/C [23]: 49.5%; viability, T/C [24]: 44.7%; viability, T/C [25]: 77.7%; viability, T/C [26]: 65%; viability, T/C [27]: 55.6%; viability, T/C [28]: 53.4%; viability, T/C [29]: 52%; viability, T/C [30]: 42.1%; viability, T/C [31]: 83.3%; viability, T/C [32]: 59.6%; viability, T/C [33]: 64.2%; viability, T/C [34]: 63.8%; viability, T/C [35]: 51.1%; viability, T/C [36]: 51.1%

Which IC50 (second compound 0.0316 µM) does the source give for `COc1ccc([C@@H](O)c2cc(-c3ncnc4cc(N5CCOCC5)ccc34)c(F)cc2Cl)nn1` + COC1C(OC(N)=O)C(O)C(Oc2ccc3c(O)c(NC(=O)c4ccc(O)c(CC=C(C)C)c4)c(=O)oc3c2C)OC1(C)C here?
Its IC50 is 7.23 µM.

What about the IC50 (second compound 0.1 µM) of the same compound?
Its IC50 is 9.89 µM.

And the IC50 (second compound 0.316 µM)?
Its IC50 is 7.3 µM.

What about the IC50 (second compound 1 µM) of the same compound?
Its IC50 is 8.15 µM.

What about the IC50 (second compound 3.16 µM) of the same compound?
The IC50 was 7.85 µM.

What about the IC50 (second compound 10 µM) of the same compound?
The IC50 was 7.09 µM.

What about the viability, T/C [1] of the same compound?
Its viability, T/C is 89.6%.

What about the viability, T/C [2] of the same compound?
The viability, T/C was 85.1%.

What about the viability, T/C [3] of the same compound?
The viability, T/C was 88.3%.

And the viability, T/C [4]?
The viability, T/C was 80%.

And the viability, T/C [5]?
The viability, T/C was 81.1%.

And the viability, T/C [6]?
Its viability, T/C is 37.6%.

What about the viability, T/C [7] of the same compound?
Its viability, T/C is 81.4%.

And the viability, T/C [8]?
The viability, T/C was 81.4%.

And the viability, T/C [9]?
Its viability, T/C is 91.5%.

And the viability, T/C [10]?
Its viability, T/C is 81.1%.

What about the viability, T/C [11] of the same compound?
The viability, T/C was 91.1%.

And the viability, T/C [12]?
Its viability, T/C is 49.7%.

And the viability, T/C [13]?
Its viability, T/C is 92.6%.

And the viability, T/C [14]?
Its viability, T/C is 82.1%.

And the viability, T/C [15]?
The viability, T/C was 79.1%.

What about the viability, T/C [16] of the same compound?
The viability, T/C was 81.6%.

And the viability, T/C [17]?
The viability, T/C was 75.1%.

And the viability, T/C [18]?
The viability, T/C was 40.4%.

What about the viability, T/C [19] of the same compound?
The viability, T/C was 74.2%.

And the viability, T/C [20]?
The viability, T/C was 83.1%.

And the viability, T/C [21]?
Its viability, T/C is 83.9%.

What about the viability, T/C [22] of the same compound?
The viability, T/C was 87.8%.

And the viability, T/C [23]?
Its viability, T/C is 82.1%.

And the viability, T/C [24]?
The viability, T/C was 43.1%.

What about the viability, T/C [25] of the same compound?
Its viability, T/C is 81%.

And the viability, T/C [26]?
Its viability, T/C is 83.3%.

And the viability, T/C [27]?
Its viability, T/C is 96.7%.

And the viability, T/C [28]?
Its viability, T/C is 77.5%.

And the viability, T/C [29]?
The viability, T/C was 78.5%.

What about the viability, T/C [30] of the same compound?
The viability, T/C was 42.5%.

And the viability, T/C [31]?
The viability, T/C was 80.3%.

And the viability, T/C [32]?
The viability, T/C was 75.8%.

What about the viability, T/C [33] of the same compound?
Its viability, T/C is 82.6%.

What about the viability, T/C [34] of the same compound?
The viability, T/C was 80.1%.

And the viability, T/C [35]?
Its viability, T/C is 95.8%.

What about the viability, T/C [36] of the same compound?
Its viability, T/C is 35.9%.

For `O=C(Nc1ccc(O)c(NS(=O)(=O)c2ccc(F)cc2)c1)c1ccc(-c2ccccc2)cc1` + COC1C(OC(N)=O)C(O)C(Oc2ccc3c(O)c(NC(=O)c4ccc(O)c(CC=C(C)C)c4)c(=O)oc3c2C)OC1(C)C, which IC50 (second compound 0.0316 µM) is on record?
The IC50 was over 10 µM.

What about the IC50 (second compound 0.1 µM) of the same compound?
The IC50 was over 10 µM.

And the IC50 (second compound 0.316 µM)?
The IC50 was over 10 µM.

And the IC50 (second compound 1 µM)?
The IC50 was over 10 µM.

And the IC50 (second compound 3.16 µM)?
The IC50 was over 10 µM.

What about the IC50 (second compound 10 µM) of the same compound?
Its IC50 is over 10 µM.

What about the viability, T/C [1] of the same compound?
Its viability, T/C is 88.1%.

What about the viability, T/C [2] of the same compound?
The viability, T/C was 79.6%.

And the viability, T/C [3]?
Its viability, T/C is 87.4%.

And the viability, T/C [4]?
The viability, T/C was 75%.

What about the viability, T/C [5] of the same compound?
The viability, T/C was 82.5%.

What about the viability, T/C [6] of the same compound?
Its viability, T/C is 76.2%.

What about the viability, T/C [7] of the same compound?
Its viability, T/C is 83.5%.

And the viability, T/C [8]?
Its viability, T/C is 77.2%.

And the viability, T/C [9]?
The viability, T/C was 99.9%.

And the viability, T/C [10]?
The viability, T/C was 79.5%.

And the viability, T/C [11]?
The viability, T/C was 75.8%.

What about the viability, T/C [12] of the same compound?
Its viability, T/C is 74%.

And the viability, T/C [13]?
The viability, T/C was 82%.

What about the viability, T/C [14] of the same compound?
Its viability, T/C is 92.8%.

And the viability, T/C [15]?
The viability, T/C was 95.6%.

What about the viability, T/C [16] of the same compound?
The viability, T/C was 73.4%.

What about the viability, T/C [17] of the same compound?
Its viability, T/C is 86.4%.

And the viability, T/C [18]?
The viability, T/C was 67.1%.

And the viability, T/C [19]?
Its viability, T/C is 95.1%.

What about the viability, T/C [20] of the same compound?
The viability, T/C was 73.5%.

And the viability, T/C [21]?
Its viability, T/C is 79.8%.

And the viability, T/C [22]?
The viability, T/C was 79%.

What about the viability, T/C [23] of the same compound?
The viability, T/C was 83.9%.

What about the viability, T/C [24] of the same compound?
The viability, T/C was 70.1%.

What about the viability, T/C [25] of the same compound?
The viability, T/C was 79.2%.

And the viability, T/C [26]?
Its viability, T/C is 88.2%.

And the viability, T/C [27]?
The viability, T/C was 77.9%.

And the viability, T/C [28]?
Its viability, T/C is 80.7%.

And the viability, T/C [29]?
Its viability, T/C is 90.3%.

What about the viability, T/C [30] of the same compound?
Its viability, T/C is 83.3%.

What about the viability, T/C [31] of the same compound?
Its viability, T/C is 84.4%.

What about the viability, T/C [32] of the same compound?
The viability, T/C was 78.9%.

And the viability, T/C [33]?
Its viability, T/C is 80.7%.

What about the viability, T/C [34] of the same compound?
Its viability, T/C is 80.4%.

What about the viability, T/C [35] of the same compound?
The viability, T/C was 75.3%.

And the viability, T/C [36]?
The viability, T/C was 74.6%.
